{"source": "ChEMBL document CHEMBL5537201", "about": "“Discovery of Unique Bis-Substituted Aromatic Amide Derivatives as Novel Highly Potent Antibiotics for Combating Methicillin-Resistant Staphylococcus aureus (MRSA)” (J Med Chem, 2024)", "key": {"[1]": {"test": "Toxicity in BALB/c mouse assessed as effect on body weight at 50 mg/kg, iv measured upto 8 days", "type": "organism-based", "settings": "in vivo, 192 h, time < 8 day"}, "[2]": {"system": "Staphylococcus aureus", "test": "Antimicrobial activity against methicillin resistant Staphylococcus aureus clinical isolate MRS153 assessed as increase in ROS levels measured upto 180 mins in presence of 2,2'-bipyridyl and thiourea by H2DCFDA probe based flow cytometry", "type": "functional, organism-based"}, "[3]": {"test": "Binding affinity to Staphylococcus aureus ATCC6538 Phosphatidylethanolamine assessed as dissociation constant by ITC analysis"}, "[4]": {"system": "Staphylococcus aureus", "test": "Upregulation of multidrug efflux pump genes in Staphylococcus aureus ATCC6538 at 5 ug/ml incubated for 2 hrs by RNA sequencing analysis", "type": "functional", "settings": "dose 5.0 µg/ml"}, "[5]": {"system": "Cell membrane", "test": "Induction of inner membrane permeabilization in methicillin resistant Staphylococcus aureus clinical isolate MRS153 assessed as increase in red fluorescence at 5 ug/ml by PI staining based analysis", "type": "cell membranes", "settings": "dose 5.0 µg/ml"}, "[6]": {"system": "Staphylococcus aureus", "test": "Antimicrobial activity against methicillin resistant Staphylococcus aureus clinical isolate MRS153 assessed as proton dynamic dissipation at pH 5 to 11", "type": "functional, organism-based"}, "[7]": {"system": "HeLa", "test": "Cytotoxicity against human HeLa cells assessed as reduction in cell viability measured after 24 hrs by CCK-8 method", "type": "functional, cell-based"}, "[8]": {"system": "Cell membrane", "test": "Disruption of cell membrane integrity in methicillin resistant Staphylococcus aureus clinical isolate MRS153 assessed as increase in fluorescence intensity at 1 to 26 times MIC measured upto 36 mins ethidium bromide uptake assay", "type": "cell membranes"}, "[9]": {"system": "Staphylococcus aureus", "test": "Antimicrobial activity against Staphylococcus aureus N315 assessed as reduction in bacterial growth incubated for 24 hrs by two-fold broth dilution method", "type": "functional"}, "[10]": {"system": "Staphylococcus aureus", "test": "Antimicrobial activity against methicillin resistant Staphylococcus aureus clinical isolate MRS200 assessed as reduction in bacterial growth incubated for 24 hrs by two-fold broth dilution method", "type": "functional"}, "[11]": {"system": "Cell membrane", "test": "Induction of Outer membrane disruption in methicillin resistant Staphylococcus aureus clinical isolate MRS153 assessed as […] in fluorescence intensity measured upto 30 mins by NPN dye based fluorescence analysis", "type": "cell membranes"}, "[12]": {"system": "Staphylococcus aureus", "test": "Induction of membrane morphological changes in Staphylococcus aureus ATCC6538 assessed as cell surface wrinkling at 5 times of MIC measured after 0.5 hrs by FE-SEM analysis", "type": "functional, organism-based"}, "[13]": {"system": "Staphylococcus aureus", "test": "Antimicrobial activity against methicillin resistant Staphylococcus aureus clinical isolate MRS207 assessed as reduction in bacterial growth incubated for 24 hrs by two-fold broth dilution method", "type": "functional"}, "[14]": {"system": "Cell membrane", "test": "Induction of inner membrane permeabilization in Staphylococcus aureus ATCC6538 assessed as increase in […] fluorescence at 5 ug/ml by PI staining based analysis", "type": "cell membranes", "settings": "dose 5.0 µg/ml"}, "[15]": {"system": "Staphylococcus aureus", "test": "Antimicrobial activity against methicillin resistant Staphylococcus aureus clinical isolate MRS153 assessed as reduction in bacterial growth incubated for 24 hrs by two-fold broth dilution method", "type": "functional"}, "[16]": {"system": "Cell membrane", "test": "Disruption of cell membrane integrity in Staphylococcus aureus ATCC6538 assessed as increase in fluorescence intensity at 1 to 26 times MIC measured upto 36 mins ethidium bromide uptake assay", "type": "cell membranes"}, "[17]": {"system": "Staphylococcus hominis", "test": "Antimicrobial activity against methicillin-resistant Staphylococcus hominis assessed as reduction in bacterial growth incubated for 24 hrs by two-fold broth dilution method", "type": "functional"}, "[18]": {"system": "Staphylococcus aureus", "test": "Bactericidal activity against Staphylococcus aureus ATCC6538 assessed as reduction in survival rate at 5 to 10 times MIC measured within 1 hr by colony counting method", "type": "functional, organism-based"}, "[19]": {"system": "Staphylococcus aureus", "test": "Induction of membrane morphological changes in Staphylococcus aureus ATCC6538 assessed as formation of cell pit at 5 times of MIC measured after 0.5 hrs by FE-SEM analysis", "type": "functional, organism-based"}, "[20]": {"system": "Staphylococcus aureus", "test": "Antibiofilm activity against Staphylococcus aureus ATCC6538 assessed as reduction in biofilm formation at 1 to 32 ug/ml incubated for 20 to 22 hrs by crystal violet staining based analysis", "type": "functional, organism-based", "settings": "dose 1-32 µg/ml, time 20-22 hrs"}, "[21]": {"system": "Cell membrane", "test": "Induction of inner membrane permeabilization in Staphylococcus aureus ATCC6538 assessed as disruption of cell membrane by measuring rightward shift measured after by PI staining based flow cytometry analysis", "type": "cell membranes"}, "[22]": {"system": "Staphylococcus aureus", "test": "In vivo antibacterial activity against methicillin-resistant Staphylococcus aureus clinical isolate MRS153 infected in C57BL/6N mouse model assessed as reduction in bacterial load in kidney at 3.125 to 12.5 mg/kg, iv measured after 24 hrs", "type": "functional, organism-based", "settings": "dose 3.125-12.5 mg/kg"}, "[23]": {"test": "Toxicity in BALB/c mouse assessed as as effect on lung at 25 to 50 mg/kg, iv by H and E staining based analysis", "type": "organism-based", "settings": "in vivo, dose 25-50 mg/kg"}, "[24]": {"system": "Staphylococcus aureus", "test": "Antimicrobial activity against Staphylococcus aureus ATCC6538 assessed as increase in ROS levels measured upto 90 mins by H2DCFDA probe based flow cytometry", "type": "functional, organism-based"}, "[25]": {"system": "Staphylococcus aureus", "test": "Bactericidal activity against methicillin-resistant Staphylococcus aureus clinical isolate MRS153 at 5 ug/ml measured upto 150 mins", "type": "functional, organism-based", "settings": "dose 5.0 µg/ml"}, "[26]": {"system": "Staphylococcus aureus", "test": "Bactericidal activity against vancomycin-resistant Staphylococcus aureus ATCC6538 measured upto 120 mins by colony counting method", "type": "functional, organism-based"}, "[27]": {"system": "Cell membrane", "test": "Induction of inner membrane permeabilization in methicillin resistant Staphylococcus aureus clinical isolate MRS153 assessed as increase in […] fluorescence at 5 ug/ml by PI staining based analysis", "type": "cell membranes", "settings": "dose 5.0 µg/ml"}, "[28]": {"system": "Staphylococcus aureus", "test": "Upregulation of repair gene expression in Staphylococcus aureus ATCC6538 at 5 ug/ml incubated for 2 hrs by RNA sequencing analysis", "type": "functional, organism-based", "settings": "dose 5.0 µg/ml"}, "[29]": {"test": "Toxicity in BALB/c mouse assessed as as change in BUN level at 25 to 50 mg/kg, iv", "type": "organism-based", "settings": "in vivo, dose 25-50 mg/kg"}, "[30]": {"system": "Staphylococcus aureus", "test": "Induction of drug resistance in Staphylococcus aureus ATCC6538 assessed as change in MIC measured after 10 passages", "type": "functional"}, "[31]": {"test": "Selectivity index, ratio of IC50 for African green monkey Vero E6 cells to MIC for Staphylococcus aureus ATCC6538", "type": "toxicity", "settings": "read-out: Selectivity Index"}, "[32]": {"system": "Staphylococcus aureus", "test": "Induction of membrane morphological changes in Staphylococcus aureus ATCC6538 assessed as cell rupture at 5 times of MIC measured after 0.5 hrs by FE-SEM analysis", "type": "functional, organism-based"}, "[33]": {"test": "Cytotoxicity against HEK293 cells assessed as reduction in cell viability measured after 24 hrs by CCK-8 method", "type": "toxicity, cell-based", "settings": "human"}, "[34]": {"test": "Toxicity in BALB/c mouse assessed as as effect on heart at 25 to 50 mg/kg, iv by H and E staining based analysis", "type": "organism-based", "settings": "in vivo, dose 25-50 mg/kg"}, "[35]": {"system": "Staphylococcus aureus", "test": "Antimicrobial activity against Staphylococcus aureus ATCC6538 assessed as increase in ROS levels measured upto 180 mins in presence of 2,2'-bipyridyl and thiourea by H2DCFDA probe based flow cytometry", "type": "functional, organism-based"}, "[36]": {"test": "Selectivity index, ratio of HC50 for rabbit Red blood cell to MIC for Staphylococcus aureus ATCC6538", "type": "toxicity", "settings": "red blood cells (erythrocytes), read-out: Selectivity Index"}, "[37]": {"system": "Cell membrane", "test": "Induction of inner membrane permeabilization in Staphylococcus aureus ATCC6538 assessed as increase in blue fluorescence at 5 ug/ml by DAPI staining based analysis", "type": "cell membranes", "settings": "dose 5.0 µg/ml"}, "[38]": {"system": "Staphylococcus aureus", "test": "Antimicrobial activity against methicillin resistant Staphylococcus aureus clinical isolate MRS108 assessed as reduction in bacterial growth incubated for 24 hrs by two-fold broth dilution method", "type": "functional"}, "[39]": {"system": "Cell membrane", "test": "Induction of cytoplasmic membrane depolarization in Staphylococcus aureus ATCC6538 assessed as increase in fluorescence intensity measured upto 120 mins by DiSC3(5) dye based fluorescence method", "type": "cell membranes"}}, "note": "Active and inactive are the calls of the source. The rule behind the calls is not given here.", "data": [{"smiles": "O=C(CCC(F)(F)F)N(Cc1cc2ccccc2s1)c1cc(-c2noc(C(F)(F)F)n2)ccc1O", "values": [{"measurement": "Activity", "setting": "[1]", "value": "Non-Toxic"}, {"measurement": "Activity", "setting": "[2]", "value": "inactive"}, {"measurement": "Kd", "setting": "[3]", "value": 183, "unit": "µM"}, {"measurement": "Activity", "setting": "[4]", "value": "Active"}, {"measurement": "Activity", "setting": "[5]", "value": "Active"}, {"measurement": "Activity", "setting": "[6]", "value": "Active"}, {"measurement": "IC50", "setting": "[7]", "value": "> 25", "unit": "µg/mL"}, {"measurement": "Activity", "setting": "[8]", "value": "Active"}, {"measurement": "MIC", "setting": "[9]", "value": 0.25, "unit": "µg/mL"}, {"measurement": "MIC", "setting": "[10]", "value": 2, "unit": "µg/mL"}, {"measurement": "Activity", "setting": "[11]", "value": "Dose-Dependent Effect"}, {"measurement": "Activity", "setting": "[12]", "value": "Active"}, {"measurement": "MIC", "setting": "[13]", "value": 1, "unit": "µg/mL"}, {"measurement": "Activity", "setting": "[14]", "value": "Active"}, {"measurement": "MIC", "setting": "[15]", "value": 1, "unit": "µg/mL"}, {"measurement": "Activity", "setting": "[16]", "value": "Active"}, {"measurement": "MIC", "setting": "[17]", "value": 1, "unit": "µg/mL"}, {"measurement": "Activity", "setting": "[18]", "value": "Active"}, {"measurement": "Activity", "setting": "[19]", "value": "Active"}, {"measurement": "Activity", "setting": "[20]", "value": "Active"}, {"measurement": "Activity", "setting": "[21]", "value": "Active"}, {"measurement": "Activity", "setting": "[22]", "value": "Active"}, {"measurement": "Activity", "setting": "[23]", "value": "Non-Toxic"}, {"measurement": "Activity", "setting": "[24]", "value": "Active"}, {"measurement": "Activity", "setting": "[25]", "value": "Active"}, {"measurement": "Activity", "setting": "[26]", "value": "Dose-Dependent Effect"}, {"measurement": "Activity", "setting": "[27]", "value": "Active"}, {"measurement": "Activity", "setting": "[28]", "value": "Active"}, {"measurement": "Activity", "setting": "[29]", "value": "Non-Toxic"}, {"measurement": "Activity", "setting": "[30]", "value": "inactive"}, {"measurement": "selectivity ratio", "setting": "[31]", "value": "> 100"}, {"measurement": "Activity", "setting": "[32]", "value": "Active"}, {"measurement": "IC50 at 24 h", "setting": "[33]", "value": 16.9, "unit": "µg/mL"}, {"measurement": "Activity", "setting": "[34]", "value": "Non-Toxic"}, {"measurement": "Activity", "setting": "[35]", "value": "inactive"}, {"measurement": "selectivity ratio", "setting": "[36]", "value": "> 1000"}, {"measurement": "Activity", "setting": "[37]", "value": "Active"}, {"measurement": "MIC", "setting": "[38]", "value": 1, "unit": "µg/mL"}, {"measurement": "Activity", "setting": "[39]", "value": "Active"}]}]}
